Tests used:
[1] = target: T1, E6AP (Homo sapiens, UniProt Q05086); experiment: In vitro ubiquitination assay, E6AP; assay type: biochemical; conditions: HECT E3 ligase
T1 construct: purchased Boston Biochem one of K-102, K-260, K-200B, K-220, K-240, K-270
Protocol: (§1) For analysis of clAP1, MDM2, TRIM63, RNF4, ITCH and E6AP mediated poly-ubiquitination, the respective ubiquitin ligase kit from Boston Biochem (K-102, K-260, K-200B, K-220, K-240 and K-270) was used. Here, reaction buffer, E1, E2 and E3 enzyme (and p53 substrate in case of MDM2) were mixed and pre-incubated with compound or DMSO for 5 minutes at room temperature before adding Mg^2+-ATP and mono-ubiquitin for reaction start. Ubiquitination was visualized by Western Blot analyses.

[2] = system: U2OS cells; experiment: Cell growth of osteosarcoma cell line U2OS; assay type: cell-based
Protocol: For analysis of the cell growth of the osteosarcoma cell line U20S, 5×10^3 cells were seeded in 96 well plates. 18 hours later, cells were treated with C25-140 (compound 3) or DMSO for 6 hours. Using a ^137caesium source (HWM-D2000), selected samples were irradiated with a dose of either 2 Gy or 4 Gy. Cell growth was measured every 24 hours for a period of 7 days by counting Hoechst33342 positive cells in an Operetta High-Content Imaging System (PerkinElmer) and the Harmony/Columbus analysis software (PerkinElmer).

[3] = system: TRAF6 auto-ubiquitination; experiment: TRAF6 auto-ubiquitination in Jurkat T-cells; assay type: cell-based, human; conditions: PMA/Ionomycin
[4] = system: IKK kinase activity; experiment: IKK kinase assay in MEF cells; assay type: cell-based, mouse
Protocol: For MEF cells, 5.5×10^5 cells were seeded, then treated with compound for 6 hours and eventually stimulated with IL-1β or TNFα for 8 minutes. 1×10^6 Jurkat T-cells were treated with compound for 6 hours and finally stimulated with PMA (400 ng/ml) and lonomycin (600 ng/ml) for 8 minutes. After cell lysis in Co-IP lysis buffer (150 mM NaCl; 25 mM Hepes (pH 7.5); 0.2% NP-40; 1 mM Glycerol; 10 mM NaF; 8 mM β-Glycerophosphat; 1 mM DTT; 300 μM Sodium-vanadate; complete protease inhibitor), input samples were taken and the supernatant was then incubated with 6 μL IKKγ antibody FL-419 (Santa Cruz Biotechnology). Upon incubation with Protein-G-Sepharose beads (GE Healthcare), beads were washed in Co-IP wash buffer (150 mM NaCl; 25 mM Hepes (pH 7.5); 0.2% NP-40; 1 mM Glycerol) and transferred into kinase reaction buffer ([…] HEPES pH7.9; 10 mM MgCl2; 20 μM ATP; 20 mM β-Glycerophosphat; 200 μM Sodium-Vanadate; 1 mM DTT) supplemented with […] GST-IκBα (1-53) and 0.5 μL ^32P-γ-ATP. After 30 minutes incubation at 37° C., reaction was stopped and analyzed by autoradiography as well as Western Blot after separation on SDS-PAGE.

[5] = target: T2, RNF4 (Homo sapiens, UniProt P78317); experiment: In vitro ubiquitination assay, RNF4; assay type: biochemical
T2 construct: purchased Boston Biochem one of K-102, K-260, K-200B, K-220, K-240, K-270
T2 sequence (P78317 whole entry, species assumed): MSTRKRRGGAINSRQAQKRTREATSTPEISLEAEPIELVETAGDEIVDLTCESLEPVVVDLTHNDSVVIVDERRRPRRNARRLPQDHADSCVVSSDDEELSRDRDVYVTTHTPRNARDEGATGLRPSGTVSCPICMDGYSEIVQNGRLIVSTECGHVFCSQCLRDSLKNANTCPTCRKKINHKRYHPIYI
Protocol: as §1

[6] = system: 24 different Ubiquitin reaction cascades; experiment: Ubiquitin Profiler (Eurofins); assay type: biochemical; conditions: 30 μM compound
Protocol: C25-140 was sent to Eurofins Pharma Discovery Services UK to perform a Single Point Ubiquitin Profiler testing of C25-140 effect at a concentration of 30 μM on 24 different Ubiquitin reaction cascades employing distinct combinations of E2, E3 and substrate. Each reaction was measured in duplicates. Cascade activity is expressed as a percentage of the mean cascade activity in the positive control samples. The positive control value is considered to be 100%, and all test samples are referred to this value.

[7] = system: 87 primary molecular targets; experiment: SafetyScreen87 (Eurofins Cerep Panlabs); assay type: binding; conditions: 10 μM
Protocol: The SafetyScreen87, a total of 87 assays, was carried out at Eurofins Cerep Panlabs. 87 primary molecular targets including 13 enzyme assays (kinases and non-kinase enzymes) and 74 binding assays (nuclear receptors, GPCRs, transporters and ion channels) were performed at a compound concentration of 10 μM C25-140. Each of the 87 assay reactions was performed at the optimised condition that was historically available at Eurofins Cerep Panlabs. In parallel to C25-140, a reference compound for each of the 87 reactions was concurrently tested to guarantee optimal setting of the assays. In this study the reference compounds performed in the same range as historic Ki values.

[8] = system: IMQ-induced psoriasis, Balb/C mice; experiment: Imiquimod (IMQ)-induced psoriasis mouse model; assay type: in vivo
Protocol: To evaluate the anti-inflammatory activity of the compound C25-140 (compound 3), an Imiquimod (IMQ)-induced psoriasis mouse model was conducted by Washington Biotechnology, Inc. (Baltimore, USA). Per group, 8 male Balb/C mice were shaved in the back (1.5 cm×2 cm) and IMQ and C25-140 were applied topically to the shaved back and the right ear daily for 6 days. Thereby, C25-140 was dissolved in acetone and applied at a total dosage of 500 μg per day (2×250 μg). Mice were monitored and daily scores (erythema, scaling and thickness of back skin) were independently collected on a scale from 0 to 4:0=none; 1=slight; 2=moderate; 3=marked and 4=very marked. Ear thickness was measured by electronic calipers as an indicator of edema. IL-17 cytokine secretion of the right ear tissue was measured by ELISA.

T1 sequence (Q05086 whole entry): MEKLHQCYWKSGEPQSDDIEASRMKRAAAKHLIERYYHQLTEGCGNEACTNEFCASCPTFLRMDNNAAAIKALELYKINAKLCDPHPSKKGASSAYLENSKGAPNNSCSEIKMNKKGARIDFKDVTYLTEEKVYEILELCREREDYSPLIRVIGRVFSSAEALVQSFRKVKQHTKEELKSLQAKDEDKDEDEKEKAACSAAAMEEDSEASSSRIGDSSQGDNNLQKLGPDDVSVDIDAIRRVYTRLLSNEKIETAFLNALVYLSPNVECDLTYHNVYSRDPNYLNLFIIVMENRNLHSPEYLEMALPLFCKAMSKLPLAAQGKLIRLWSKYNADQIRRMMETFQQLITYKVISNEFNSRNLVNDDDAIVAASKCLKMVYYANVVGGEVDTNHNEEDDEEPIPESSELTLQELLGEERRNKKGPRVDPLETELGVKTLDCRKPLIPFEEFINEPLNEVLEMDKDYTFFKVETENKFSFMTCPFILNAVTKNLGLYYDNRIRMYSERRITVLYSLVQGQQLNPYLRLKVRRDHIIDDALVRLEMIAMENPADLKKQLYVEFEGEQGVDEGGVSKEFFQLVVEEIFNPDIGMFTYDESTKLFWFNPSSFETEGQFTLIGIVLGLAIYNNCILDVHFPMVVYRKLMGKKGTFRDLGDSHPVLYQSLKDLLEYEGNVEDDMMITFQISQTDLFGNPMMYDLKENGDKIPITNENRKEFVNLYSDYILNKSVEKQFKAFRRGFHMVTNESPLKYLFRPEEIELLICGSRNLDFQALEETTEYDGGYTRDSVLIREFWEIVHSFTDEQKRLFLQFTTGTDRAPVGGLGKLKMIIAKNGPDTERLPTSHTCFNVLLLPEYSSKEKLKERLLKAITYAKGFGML

## Cc1nn(-c2ccc3nnc(C)n3n2)c(C)c1CCC(=O)N1CCC(Cc2ccccc2)CC1 [Compound 3, 1-(4-benzylpiperidin-1-yl)-3-(3,5-dimethyl-1-(3-methyl-[1,2,4]triazolo[4,3-b]pyridazin-6-yl)-1H-pyrazol-4-yl)propan-1-one]
[1]
  S5A ubiquitination by E6AP: not affected
[2]; 30 μM
  cell proliferation, compound alone vs 2Gy irradiation: same inhibitory impact
[2]; 30 μM C25-140+2Gy
  cell proliferation, combination with 2Gy irradiation: boosted the effect to the region of 4Gy irradiation
[3]
  TRAF6 auto-ubiquitination upon TCR stimulation: dose-dependently reduced
[4]
  IKK kinase activity after IL-1β stimulation: decreased
[4]; TNFα
  TNFα induced phosphorylation of IκBα: also affected
[5]
  RNF4 auto-ubiquitination: not affected
[6]
  inhibition of ubiquitination cascades, Ubiquitin Profiler panel: None of the reactions is considerably inhibited
[7]
  binding to SafetyScreen87 targets: no significant binding
[8]; day 6, ELISA
  IL-17 in right ear tissue: decreased
[8]; topical twice daily, 6 days
  cumulative score (thickness, scaling, erythema of the back): reduces
  ear thickness: significantly reduced
  scaling, erythema and ear thickness scores: improvement of the disease symptoms
  thickness score of the back: significantly reduce

Reference: US11001591B2, “TRAF 6 inhibitors” (HELMHOLTZ ZENTRUM MUENCHEN—DEUTSCHES FORSCHUNGSZENTRUM FÜR …, priority 2016, dated 2021)
